Experimental data as given in patent US20260125359A1, “HETEROARYL COMPOUNDS AS MULTI-TARGET PROTEIN KINASE INHIBITORS” (FUJIAN HAIXI PHARMACEUTICALS CO., LTD., priority 2023, published 2026).

Tests used:
DDR1 = DDR1 (Homo sapiens, UniProt Q08345); assay: DDR1 in vitro kinase activity assay (LanthaScreen Eu-anti-GST antibody / Kinase Tracer 178); type: binding; conditions: for inhibition at 0.01 µM: compound 10 nM, read-out: DDR1 inhibition rate, 10 nM; for inhibition at 0.1 µM: compound 100 nM, read-out: DDR1 inhibition rate, 100 nM
Sequence of DDR1 (Q08345 19-913): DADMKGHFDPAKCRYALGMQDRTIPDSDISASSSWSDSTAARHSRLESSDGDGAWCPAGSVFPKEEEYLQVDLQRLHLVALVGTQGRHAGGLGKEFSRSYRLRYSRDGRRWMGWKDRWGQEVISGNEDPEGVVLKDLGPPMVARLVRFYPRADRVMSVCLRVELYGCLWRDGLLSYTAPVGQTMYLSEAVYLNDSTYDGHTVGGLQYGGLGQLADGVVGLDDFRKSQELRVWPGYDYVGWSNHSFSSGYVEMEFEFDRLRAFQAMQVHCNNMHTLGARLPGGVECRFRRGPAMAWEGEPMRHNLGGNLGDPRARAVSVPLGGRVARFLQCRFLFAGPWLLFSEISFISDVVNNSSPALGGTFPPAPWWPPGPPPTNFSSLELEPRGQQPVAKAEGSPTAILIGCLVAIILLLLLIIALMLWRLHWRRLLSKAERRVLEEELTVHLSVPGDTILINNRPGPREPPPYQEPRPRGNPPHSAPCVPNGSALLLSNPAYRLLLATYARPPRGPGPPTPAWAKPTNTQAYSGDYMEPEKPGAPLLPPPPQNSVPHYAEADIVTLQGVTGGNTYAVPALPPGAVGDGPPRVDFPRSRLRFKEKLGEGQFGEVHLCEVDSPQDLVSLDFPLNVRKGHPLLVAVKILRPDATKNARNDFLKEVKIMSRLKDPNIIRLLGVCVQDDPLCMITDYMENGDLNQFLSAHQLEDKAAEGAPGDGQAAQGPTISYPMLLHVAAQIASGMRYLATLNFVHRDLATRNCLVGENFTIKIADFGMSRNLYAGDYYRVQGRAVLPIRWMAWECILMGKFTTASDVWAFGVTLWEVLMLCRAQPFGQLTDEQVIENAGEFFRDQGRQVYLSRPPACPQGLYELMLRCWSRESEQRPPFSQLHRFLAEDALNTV
Method: DDR1 in vitro Kinase Activity Assay:
• ENVISION (Perkinelmer, 2104) • White 384-well MicroPlate (Cat #264706, Nunc) • DDR1 (Cat #PV6047, Invitrogen) • 5× Kinase Buffer A (Cat #PV3189, Invitrogen) • Kinase Tracer 178 (Cat #PV5593, Invitrogen) • LanthaScreen® Eu-anti-GST Antibody (Cat #PV5594, Invitrogen)
The compounds to be tested were tested at two concentrations of 100 nM and 10 nM.
Kinase/Antibody Mixtures Preparation: Dilute Kinase/Antibody Mixtures with 1× Kinase Buffer to form 3× working solutions with final concentrations of 5 nM kinase and 2 nM Eu-Anti-GST Antibody, respectively.
Kinase Tracer 178 Preparation: Dilute Kinase Tracer 178 with 1× Kinase Buffer to make a 3× working solution with a final concentration of 10 nM.
After all reagents were prepared according to the methods described above, except for the enzyme, they were equilibrated to room temperature before starting the sample addition. • a) First, 3% DMSO solutions were prepared separately using the pre-prepared 1× kinase buffer (DMSO concentrations that were too high could affect the reaction, so the final concentration of DMSO was controlled at 1%). Then, the corresponding 3% DMSO solution for the enzyme was used to dilute the test compounds. Compounds were screened with two concentrations of 100 nM and 10 nM. Except for the control wells, 5 μL of the diluted test compound solution was added to the reaction wells, and 5 μL of the pre-prepared 3% DMSO solution was added to the control wells. • b) 5 μL of the pre-prepared Kinase/Antibody mixtures was added to all reaction wells except the negative control wells. For the negative control wells, 5 μL of 1× kinase buffer corresponding to the enzyme was added to make up the volume. • c) 5 μL of the pre-prepared Kinase Tracer 178 solution was added to all reaction wells. • d) The plate was sealed and mixed, incubated at room temperature for 1 hour, and the fluorescence signal was detected using the ENVISION (PerkinElmer) instrument (excitation at 340 nm, emission at 665 nm and 615 nm). The inhibition rate for each well was calculated based on the full-activity control wells and background signal wells, and the average value of the replicates was taken.

KDR (VEGFR2) = KDR (VEGFR2) (Homo sapiens, UniProt P35968); assay: KDR (VEGFR2) in vitro kinase activity assay (HTRF kinEASE TK); type: biochemical; conditions: for inhibition at 0.01 µM: compound 10 nM, read-out: VEGFR2 inhibition rate, 10 nM; for inhibition at 0.1 µM: compound 100 nM, read-out: VEGFR2 inhibition rate, 100 nM
Sequence of KDR (VEGFR2) (P35968 20-1356): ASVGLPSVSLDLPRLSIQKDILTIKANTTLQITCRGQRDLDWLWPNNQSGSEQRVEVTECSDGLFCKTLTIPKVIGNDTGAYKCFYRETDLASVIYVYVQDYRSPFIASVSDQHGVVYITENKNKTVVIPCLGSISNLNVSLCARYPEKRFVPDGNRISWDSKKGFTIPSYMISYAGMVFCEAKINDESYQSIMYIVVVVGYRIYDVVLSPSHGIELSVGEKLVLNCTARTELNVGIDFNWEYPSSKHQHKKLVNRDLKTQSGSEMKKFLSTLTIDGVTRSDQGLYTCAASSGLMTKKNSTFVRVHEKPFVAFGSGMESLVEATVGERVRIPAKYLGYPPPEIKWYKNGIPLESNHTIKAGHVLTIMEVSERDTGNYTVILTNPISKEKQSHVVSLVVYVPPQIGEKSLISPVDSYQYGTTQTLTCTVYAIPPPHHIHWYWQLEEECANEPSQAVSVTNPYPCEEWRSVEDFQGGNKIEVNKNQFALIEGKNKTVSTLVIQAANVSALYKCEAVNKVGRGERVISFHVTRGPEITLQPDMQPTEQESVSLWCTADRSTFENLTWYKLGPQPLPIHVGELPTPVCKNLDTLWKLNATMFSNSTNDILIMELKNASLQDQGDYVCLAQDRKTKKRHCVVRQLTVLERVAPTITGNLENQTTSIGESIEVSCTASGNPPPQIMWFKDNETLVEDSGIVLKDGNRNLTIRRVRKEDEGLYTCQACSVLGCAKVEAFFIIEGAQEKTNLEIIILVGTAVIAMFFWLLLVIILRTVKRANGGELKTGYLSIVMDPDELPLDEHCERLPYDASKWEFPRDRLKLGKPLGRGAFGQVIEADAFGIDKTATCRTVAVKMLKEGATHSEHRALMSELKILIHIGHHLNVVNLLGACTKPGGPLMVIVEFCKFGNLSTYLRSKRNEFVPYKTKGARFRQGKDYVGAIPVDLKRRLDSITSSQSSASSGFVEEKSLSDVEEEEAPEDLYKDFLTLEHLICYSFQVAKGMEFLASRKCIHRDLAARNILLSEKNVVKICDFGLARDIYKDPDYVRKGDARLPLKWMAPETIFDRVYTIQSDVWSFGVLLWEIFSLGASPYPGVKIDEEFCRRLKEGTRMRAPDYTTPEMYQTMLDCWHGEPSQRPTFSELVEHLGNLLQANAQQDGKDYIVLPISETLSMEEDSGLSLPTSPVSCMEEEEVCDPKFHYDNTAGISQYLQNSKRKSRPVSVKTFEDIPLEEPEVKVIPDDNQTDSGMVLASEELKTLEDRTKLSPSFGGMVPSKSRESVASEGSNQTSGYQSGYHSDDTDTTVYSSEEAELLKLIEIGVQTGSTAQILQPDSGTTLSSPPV
Excerpt: (§1) CSF-1R, PDGFR-α, KDR (VEGFR2) and KIT in vitro Kinase Activity Assay:
(§2) • ENVISION (Perkinelmer, 2104) • White 384-well MicroPlate (Cat #264706, Nunc) • HTRF kinEASE TK kit main reagents (Cat #62TKOPEC, Cisbio) • TK-biotin substrate • Streptavidin-XL665 • TK Antibody-Cryptate • 5× Enzymatic buffer (5×KB) • Staphylococcal enterotoxin B (SEB) • HTRF Detection buffer • CSF-1R (Cat #PV3249, Invitrogen) • PDGFR-α (Cat #PV3811, Invitrogen) • KDR (Cat #PV3660, Invitrogen) • KIT (Cat #08-156, Carna) • ATP 10 mM (Cat #PV3227, Invitrogen) • DTT 1 M (Cat #D5545, Sigma) • MgCl2 1 M (Cat #M8266, Sigma) • MnCl2 1 M (Cat #244589, Sigma)
(§3) Dilute Substrate-TK and ATP to 5× of the reaction concentration using 1× Kinase Buffer.
(§4) Prepare the 5× enzyme working solution using 1× Kinase Buffer.
(§5) Prepare the 4×Sa-XL665 working solution using Detection Buffer.
(§6) Dilute TK-Ab-Cryptate 100 times using Detection Buffer to prepare the working solution.
(§7) After all reagents were prepared according to the methods described above, except for the enzyme, they were equilibrated to room temperature before starting the sample addition. • a) First, 2.5% DMSO solutions were prepared separately using the pre-prepared 1× kinase buffer (DMSO concentrations that were too high could affect the reaction, so the final concentration of DMSO was controlled at 1%). Then, the corresponding 2.5% DMSO solution for the enzyme was used to dilute the test compounds. Compounds were screened with two concentrations of 100 nM and 10 nM. Except for the control wells, 4 μL of the diluted test compound solution was added to the reaction wells, and 4 μL of the pre-prepared 2.5% DMSO solution was added to the control wells. • b) 2 μL of the pre-prepared TK-biotin substrate solution at the corresponding concentration for the kinase was added to all reaction wells. • c) 2 μL of the pre-prepared enzyme solution at the corresponding concentration was added to all reaction wells except the negative control wells. For the negative control wells, 2 μL of 1× kinase buffer corresponding to the enzyme was added to make up the volume. The plate was sealed with sealing film, mixed gently, and incubated at room temperature for 10 min to allow the compounds to fully interact with the enzyme. • d) 2 μL of the ATP solution at the corresponding concentration for the enzyme was added to all reaction wells to initiate the kinase reaction. ATP concentrations and reaction times for enzyme screening are shown in Table 26 • e) Five minutes before the end of the kinase reaction, the detection solution was prepared. The detection buffer from the kit was used to prepare detection solutions for Streptavidin-XL665 and TK antibody europium cryptate (1:100) at the appropriate concentrations for the two enzymes. • f) After the kinase reaction was completed, 5 μL of the diluted Streptavidin-XL665 solution was added to all reaction wells. After mixing, the diluted TK antibody europium cryptate detection solution was immediately added. • g) The plate was sealed and mixed, incubated at room temperature for 1 hour, and the fluorescence signal was detected using the ENVISION (PerkinElmer) instrument (excitation at 320 nm, emission at 665 nm and 615 nm). The inhibition rate for each well was calculated based on the full-activity control wells and background signal wells, and the average value of the replicates was taken.

CSF-1R = CSF-1R (Homo sapiens, UniProt P07333); assay: CSF-1R in vitro kinase activity assay (HTRF kinEASE TK); type: biochemical; conditions: for inhibition at 0.01 µM: compound 10 nM, read-out: CSF-1R inhibition rate, 10 nM; for inhibition at 0.1 µM: compound 100 nM, read-out: CSF-1R inhibition rate, 100 nM
Sequence of CSF-1R (P07333 20-972): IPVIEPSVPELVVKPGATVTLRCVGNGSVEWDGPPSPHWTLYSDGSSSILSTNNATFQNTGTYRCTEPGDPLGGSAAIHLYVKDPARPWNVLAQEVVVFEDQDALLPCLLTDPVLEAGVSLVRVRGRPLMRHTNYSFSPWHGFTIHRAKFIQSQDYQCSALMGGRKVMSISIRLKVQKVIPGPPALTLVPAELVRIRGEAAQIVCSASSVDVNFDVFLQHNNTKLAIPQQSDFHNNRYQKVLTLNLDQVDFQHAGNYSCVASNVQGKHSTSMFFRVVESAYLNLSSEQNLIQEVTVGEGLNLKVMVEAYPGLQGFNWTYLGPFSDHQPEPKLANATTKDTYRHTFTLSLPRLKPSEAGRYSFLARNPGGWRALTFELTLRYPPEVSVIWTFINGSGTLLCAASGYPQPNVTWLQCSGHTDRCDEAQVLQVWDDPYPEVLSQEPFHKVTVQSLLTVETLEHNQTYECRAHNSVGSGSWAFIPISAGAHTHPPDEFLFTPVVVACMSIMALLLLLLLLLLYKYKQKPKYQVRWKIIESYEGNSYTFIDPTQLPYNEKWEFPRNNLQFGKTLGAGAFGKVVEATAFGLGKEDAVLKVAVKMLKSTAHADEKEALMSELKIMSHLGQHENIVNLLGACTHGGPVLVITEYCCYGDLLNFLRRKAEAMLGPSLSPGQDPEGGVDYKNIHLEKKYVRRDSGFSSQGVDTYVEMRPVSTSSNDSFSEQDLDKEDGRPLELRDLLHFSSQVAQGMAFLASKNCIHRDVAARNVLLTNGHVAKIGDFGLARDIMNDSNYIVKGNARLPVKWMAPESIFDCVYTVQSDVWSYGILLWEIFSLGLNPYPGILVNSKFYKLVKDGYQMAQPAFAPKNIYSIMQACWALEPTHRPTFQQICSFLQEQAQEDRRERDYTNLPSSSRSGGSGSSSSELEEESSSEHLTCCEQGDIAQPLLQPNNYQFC
Excerpt: as §1, §2, §3, §4, §5, §6, §7

Row | inhibition at 0.01 µM (DDR1) [%] | inhibition at 0.1 µM (DDR1) [%] | inhibition at 0.01 µM (KDR (VEGFR2)) [%] | inhibition at 0.1 µM (KDR (VEGFR2)) [%] | inhibition at 0.01 µM (CSF-1R) [%] | inhibition at 0.1 µM (CSF-1R) [%] | SMILES
1 | 32.4 | 61.4 | 29.2 | 82.6 | 42.1 | 95.9 | CN1CCc2nc(NC(=O)c3cccc4c3CC[C@@H]4Nc3cncc(-c4cnn(C)c4)c3)sc2C1 [Compound 14ba]
2 | 29.7 | 88 | 22.3 | 62.6 | 48.6 | 100 | CN(c1cncc(-c2cnn(C)c2)c1)[C@H]1CCc2c(C(=O)Nc3cncc(Cl)c3)cccc21 [Compound 21, (S)—N-(5-chloropyridin-3-yl)-1-(methyl (5-(1-methyl-1H-pyrazol-4-yl)pyridin-3-yl)amino)-2,3-dihydro-1H-indene-4-carboxamide]
3 | 20 | 98.4 | 12.9 | 70.1 | 46.6 | 95.9 | Cn1ncc2ncc(N[C@H]3CCc4c(Nc5cc(C(C)(C)C)on5)cccc43)nc21 [Compound 86, (S)—N^4-(5-(tert-butyl)isoxazol-3-yl)-N1-(1-methyl-1H-pyrazolo[3,4-b]pyrazin-6-yl)-2,3-dihydro-1H-indene-1,4-diamine]
4 | 94.2 | 99.6 | 96.5 | 102 | 78.2 | 99.1 | Cn1cc2ncc(O[C@H]3CCc4c(C(=O)Nc5cncc(Cl)c5)cccc43)cc2n1 [Compound 76ai]
5 | 21.2 | 69.7 | 93.2 | 97 | 15.3 | 94.1 | Cc1cccc(NC(=O)c2cccc3c2CC[C@@H]3Oc2cnc3cn(C)nc3c2)n1 [Compound 76bd]

Further lines, the molecule ahead of its results:

Row | SMILES | inhibition at 0.01 µM (DDR1) [%] | inhibition at 0.1 µM (DDR1) [%] | inhibition at 0.01 µM (KDR (VEGFR2)) [%] | inhibition at 0.1 µM (KDR (VEGFR2)) [%] | inhibition at 0.01 µM (CSF-1R) [%] | inhibition at 0.1 µM (CSF-1R) [%]
6 | Cn1cc(-c2cncc(N[C@H]3CCc4c(Nc5noc(C(C)(C)C)n5)cccc43)c2)cn1 [Compound 42o] | 4.1 | 67.6 | 28.9 | 65.6 | 55.8 | 100
7 | Cn1cc2ncc(O[C@H]3CCc4c(C(=O)Nc5nn(C)c6cccc(F)c56)cccc43)cc2n1 [Compound 76aw] | 64 | 93.6 | 89.9 | 101 | 65.1 | 99.1
8 | Cn1ncc2ncc(N[C@H]3CCc4c(C(=O)Nc5cccc(C6CC6)c5)cccc43)cc21 [Compound 73, (S)—N-(3-cyclopropylphenyl)-1-((1-methyl-1H-pyrazolo[4,3-b]pyridin-6-yl)amino)-2,3-dihydro-1H-indene-4-carboxamide] | 72.5 | 103 | 68.3 | 100 | 70.2 | 101
9 | Cc1cc(NC(=O)c2cccc3c2CC[C@@H]3Oc2cncc(-c3cnn(C)c3)c2)cc(C)n1 [Compound 19k, (S)—N-(2,6-dimethylpyridin-4-yl)-1-((5-(1-methyl-1H-pyrazol-4-yl)pyridin-3-yl)oxy)-2,3-dihydro-1H-indene-4-carboxamide] | 81.4 | 89.9 | 53 | 99.1 | 57.6 | 97.4
10 | CN1CCc2nc(NC(=O)c3cccc4c3CC[C@@H]4Oc3cncc(-c4cnn(C)c4)c3)sc2C1 [Compound 19f] | 23.1 | 53.5 | 22.7 | 88.9 | 27.5 | 95.4
11 | Cn1cc2ncc(N[C@H]3CCc4c(C(=O)Nc5nc(C6CC6)cs5)cccc43)cc2n1 [Compound 74h, (S)—N-(4-cyclopropylthiazol-2-yl)-1-((2-methyl-2H-pyrazolo[4,3-b]pyridin-6-yl)amino)-2,3-dihydro-1H-indene-4-carboxamide] | 57.2 | 99.9 | 60.3 | 94.9 | 72.6 | 96.3
12 | Cc1cccc(NC(=O)c2cccc3c2CC[C@@H]3Nc2cncc(-c3cnn(C)c3)c2)c1 [Compound 13, (S)-1-((5-(1-methyl-1H-pyrazol-4-yl)pyridin-3-yl)amino)-N-(m-tolyl)-2,3-dihydro-1H-indene-4-carboxamide] | 90.2 | 95.1 | 95.3 | 99.5 | 79.9 | 93.5
13 | Cn1cc(-c2cncc(N[C@H]3CCc4c(C(=O)Nc5nn(C)c6ccccc56)cccc43)n2)cn1 [Compound 27g, (S)—N-(1-methyl-1H-indazol-3-yl)-1-((6-(1-methyl-1H-pyrazol-4-yl)pyrazin-2-yl)amino)-2,3-dihydro-1H-indene-4-carboxamide] | 92.1 | 101 | 88.9 | 100 | 75.2 | 95.8
14 | Cn1cc2ncc(O[C@H]3CCc4c(C(=O)Nc5nn(C)c6ccccc56)cccc43)cc2n1 [Compound 76al] | 98 | 98.5 | 99.1 | 95.6 | 105 | 103
15 | Cn1cc(-c2cnc(N)c(O[C@H]3CCc4c(C(=O)Nc5cccc(C6CC6)c5)cccc43)c2)cn1 [Compound 4, (S)-1-((2-amino-5-(1-methyl-1H-pyrazol-4-yl)pyridin-3-yl)oxy)-N-(3-cyclopropylphenyl)-2,3-dihydro-1H-indene-4-carboxamide] | 88.6 | 98.2 | 97.8 | 100 | 80.1 | 89.8
